We go through 22 compounds from US8188077B2, “Apoptosis-inducing agents for the treatment of cancer and immune and autoimmune diseases” (Abbott Laboratories, priority 2010, dated 2012).

As a reminder, the Ki is the equilibrium dissociation constant of an inhibitor or competing ligand from its target.

SMILES strings stand for the structures.

The test has as its target T1, Bcl-2 protein (Homo sapiens, UniProt P10415, DELINS35-91DVEENRTEAPEGTESE, form not given).
T1 construct: fused on or other part: Bcl-xL (Q07817) residues 29-44 stand in place of Bcl-2's own unstructured loop 35-91; The C-terminal membrane anchor (208-239) is absent
Kind of test: Bcl-2 fluorescence polarization assay (FPA) binding. The settings on record: 10 nM Bcl-2 protein, 1 nM fluorescein-labeled BAX peptide, room temperature, read-out: Bcl-2 FPA 11pt Ki. As for the experimental part: Assays for the inhibition of Bcl-2 were performed in 96-well microtiter plates. Compounds of the instant invention were diluted in DMSO to concentrations between […] and 10 pM and introduced into each well of the plate. A mixture totaling 125 µL per well of assay buffer (20 mM phosphate buffer (pH 7.4), 1 mM EDTA, 0.05% PF-68), 10 nM of Bcl-2 protein (prepared according to the procedure described in PNAS 2001, 98, 3012-3017), 1 nM fluorescein-labeled BAX peptide (prepared in-house), and the DMSO solution of the compound of the instant invention was shaken for 2 minutes and placed in a LJL Analyst (LJL Bio Systems, CA. Polarization was measured at room temperature using a continuous Fluorescein lamp (excitation 485 nm, emission 530 nm). Ki values were calculated using Microsoft Excel.
A general note: In fluorescence polarisation assays a small probe gives low polarisation when free and higher when bound to something large.

T1 sequence (P10415 with tags, fused parts or gaps with the stated changes): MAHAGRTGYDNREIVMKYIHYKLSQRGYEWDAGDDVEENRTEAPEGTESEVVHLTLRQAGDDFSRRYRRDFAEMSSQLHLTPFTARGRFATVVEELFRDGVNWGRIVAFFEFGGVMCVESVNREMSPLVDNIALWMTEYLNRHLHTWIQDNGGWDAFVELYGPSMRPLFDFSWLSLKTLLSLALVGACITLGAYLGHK

Consider `O=C(NS(=O)(=O)c1ccc(NC2CCOCC2)c([N+](=O)[O-])c1)c1ccc(N2CC3CC2CN3C(=O)C23CC4CC(CC(C4)C2)C3)cc1` (stereo not shown) [Example 43, 4-{5-[adamantan-1-ylcarbonyl]-2,5-diazabicyclo[2.2.1]hept-2-yl}-N-{[3-nitro-4-(tetrahydro-2H-pyran-4-ylamino)phenyl]sulfonyl}benzamide], for which the inhibition constant Ki is over 6250 nM.
Take `O=C(NS(=O)(=O)c1ccc(NC2CCOCC2)c([N+](=O)[O-])c1)c1ccc(N2CC3CN(C(=O)C45CC6CC(CC(C6)C4)C5)CC32)cc1` [Example 44, 4-{1S,5S)-3-[adamantan-1-ylcarbonyl]-3,6-diazabicyclo[3.2.0]hept-6-yl}-N-{[3-nitro-4-(tetrahydro-2H-pyran-4-ylamino)phenyl]sulfonyl}benzamide]: the Ki was over 6250 nM.
As for `C[C@@H]1[C@@H](N(CCCc2ccccc2)C2CCN(c3ccc(C(=O)NS(=O)(=O)c4ccc(NC5CCOCC5)c([N+](=O)[O-])c4)cc3)CC2)C[C@H]2C[C@@H]1C2(C)C` [Example 45, N-{[3-nitro-4-(tetrahydro-2H-pyran-4-ylamino)phenyl]sulfonyl}-4-(4-{(3-phenylpropyl)[(1S,2S,3S,5R)-2,6,6-trimethylbicyclo[3.1.1]hept-3-yl]amino}piperidin-1-yl)benzamide], the figure is 79 nM; as for `C[C@@H]1[C@@H](N(C(=O)CCc2ccccc2)C2CCN(c3ccc(C(=O)NS(=O)(=O)c4ccc(NCC5CCCCC5)c([N+](=O)[O-])c4)cc3)CC2)C[C@H]2C[C@@H]1C2(C)C` [Example 46, N-({4-[(cyclohexylmethyl)amino]-3-nitrophenyl}sulfonyl)-4-(4-{(3-phenylpropanoyl)[(1S,2S,3S,5R)-2,6,6-trimethylbicyclo[3.1.1]hept-3-yl]amino}piperidin-1-yl)benzamide], 33 nM.
Regarding `O=C(NS(=O)(=O)c1ccc(NCC2CCCCC2)c([N+](=O)[O-])c1)c1ccc(N2CCN(CC34CC5CC(CC(C5)C3)C4)CC2)cc1` [Example 47, 4-{4-[adamantan-1-ylmethyl]piperazin-1-yl}-N-({4-[(cyclohexylmethyl)amino]-3-nitrophenyl}sulfonyl)benzamide], the Ki was 66.9 nM.
On to `O=C(NS(=O)(=O)c1ccc(NCC2CCCCC2)c([N+](=O)[O-])c1)c1ccc2cc(-c3ccc(O)c(C45CC6CC(CC(C6)C4)C5)c3)ccc2c1` [Example 48, 6-{3-[adamantan-1-yl]-4-hydroxyphenyl}-N-({4-[(cyclohexylmethyl)amino]-3-nitrophenyl}sulfonyl)-2-naphthamide], for which the Ki turned out to be 1390 nM.
As to `O=C(NS(=O)(=O)c1ccc(NCC2CCCCC2)c([N+](=O)[O-])c1)c1ccc(N2CCN(CC(=O)C34CC5CC(CC(C5)C3)C4)CC2)cc1` [Example 49, 4-(4-{2-[adamantan-1-yl]-2-oxoethyl}piperazin-1-yl)-N-({4-[(cyclohexylmethyl)amino]-3-nitrophenyl}sulfonyl)benzamide], the Ki was 342 nM.
Regarding `O=C(NS(=O)(=O)c1ccc(NC2CCOCC2)c([N+](=O)[O-])c1)c1ccc(NCC2C3CC4CC(C3)CC2C4)cc1` (stereo not shown) [Example 50, 4-{[adamantan-2-ylmethyl]amino}-N-{[3-nitro-4-(tetrahydro-2H-pyran-4-ylamino)phenyl]sulfonyl}benzamide], the Ki worked out at 3560 nM.
In the case of `O=C(NS(=O)(=O)c1ccc(NC2CCOCC2)c([N+](=O)[O-])c1)c1ccc(OCCC23CC4CC(CC(C4)C2)C3)cc1` [Example 51, 4-{2-[adamantan-1-yl]ethoxy}-N-{[3-nitro-4-(tetrahydro-2H-pyran-4-ylamino)phenyl]sulfonyl}benzamide], the Ki was found to be 1050 nM.
Take `O=C(CCN(Cc1ccccc1)C(=O)CC12CC3CC(CC(C3)C1)C2)NS(=O)(=O)c1ccc(NCC2CCCCC2)c([N+](=O)[O-])c1` [Example 52, N^3-[adamantan-1-ylacetyl]-N^3-benzyl-N-({4-[(cyclohexylmethyl)amino]-3-nitrophenyl}sulfonyl)-beta-alaninamide]: the Ki is 1390 nM.
For `C[C@@H]1[C@@H](N2CCN(c3ccc(C(=O)NS(=O)(=O)c4ccc(NCC5CCCCC5)c([N+](=O)[O-])c4)cc3)CC2)C[C@H]2C[C@@H]1C2(C)C` [Example 53, N-({4-[(cyclohexylmethyl)amino]-3-nitrophenyl}sulfonyl)-4-{4-[(1S,2S,3S,5R)-2,6,6-trimethylbicyclo[3.1.1]hept-3-yl]piperazin-1-yl}benzamide], the Ki was found to be 845 nM.
As for `O=C(NS(=O)(=O)c1ccc(NCC2CCCCC2)c([N+](=O)[O-])c1)c1ccc(N2CCN(C34CC5CC(CC(C5)C3)C4)CC2)cc1` [Example 54, 4-{4-[adamantan-1-yl]piperazin-1-yl}-N-({4-[(cyclohexylmethyl)amino]-3-nitrophenyl}sulfonyl)benzamide], the figure is over 9730 nM; as for `CC12CC3CC(C)(C1)CC(N1CCN(c4ccc(C(=O)NS(=O)(=O)c5ccc(NCC6CCCCC6)c([N+](=O)[O-])c5)cc4)CC1)(C3)C2` [Example 55, N-({4-[(cyclohexylmethyl)amino]-3-nitrophenyl}sulfonyl)-4-{4-[3,5-dimethyladamantan-1-yl]piperazin-1-yl}benzamide], 352 nM.
The value for `CC1(C)O[C@@H]2[C@@H](CO[C@@]3(COS(=O)(=O)NC(=O)c4ccc(N5CCN(Cc6ccccc6-c6ccc(Cl)cc6)CC5)cc4)OC(C)(C)O[C@@H]23)O1` [Example 56, [(3 aS,5aR,8aR,8bS)-2,2,7,7-tetramethyltetrahydro-3aH-bis[1,3]dioxolo[4,5-b:4′,5′-d]pyran-3a-yl]methyl (4-{4-[(4′-chlorobiphenyl-2-yl)methyl]piperazin-1-yl}benzoyl)sulfamate] was under 20 nM; that for `CC1(C)[C@H]2CC[C@]1(CS(=O)(=O)NC(=O)c1ccc(N3CCN(Cc4ccccc4-c4ccc(Cl)cc4)CC3)cc1)C(=O)C2` [Example 57, 4-{4-[(4′-chlorobiphenyl-2-yl)methyl]piperazin-1-yl}-N-({[(1R,4S)-7,7-dimethyl-2-oxobicyclo[2.2.1]hept-1-yl]methyl}sulfonyl)benzamide] was 134 nM.
For the compound `O=C(NS(=O)(=O)c1ccc(NCC2CCCCC2)c([N+](=O)[O-])c1)c1ccc(N2CCN(CCC34CC5CC(CC(C5)C3)C4)CC2)cc1` [Example 58, 4-(4-{2-[adamantan-1-yl]ethyl}piperazin-1-yl)-N-({4-[(cyclohexylmethyl)amino]-3-nitrophenyl}sulfonyl)benzamide], the inhibition constant (Ki) is over 18700 nM.
For `CC1(C)[C@@H]2CC[C@@]1(CS(=O)(=O)NC(=O)c1ccc(N3CCN(Cc4ccccc4-c4ccc(Cl)cc4)CC3)cc1)C(=O)C2` [Example 59, 4-{4-[(4′-chlorobiphenyl-2-yl)methyl]piperazin-1-yl}-N-({[(1S,4R)-7,7-dimethyl-2-oxobicyclo[2.2.1]hept-1-yl]methyl}sulfonyl)benzamide], the Ki stood at 66.7 nM.
The value for `C[C@@H]1[C@@H](N(Cc2ccc(-c3ccc(C(=O)NS(=O)(=O)c4ccc(NCC5CCCCC5)c([N+](=O)[O-])c4)cc3)cc2)C(=O)CCc2ccccc2)C[C@H]2C[C@@H]1C2(C)C` [Example 60, N-({4-[(cyclohexylmethyl)amino]-3-nitrophenyl}sulfonyl)-4′-({(3-phenylpropanoyl)[(1S,2S,3S,5R)-2,6,6-trimethylbicyclo[3.1.1]hept-3-yl]amino}methyl)biphenyl-4-carboxamide] was 504 nM.
Turning to `CC1(C)[C@H]2C=C(c3ccccc3C=C3CCN(c4ccc(C(=O)NS(=O)(=O)c5ccc(NCC6CCOCC6)c([N+](=O)[O-])c5)cc4)CC3)[C@]1(C)CC2` [Example 61, N-({3-nitro-4-[(tetrahydro-2H-pyran-4-ylmethyl)amino]phenyl}sulfonyl)-4-(4-{2-[(1R,4R)-1,7,7-trimethylbicyclo[2.2.1]hept-2-en-2-yl]benzylidene}piperidin-1-yl)benzamide], the Ki was under 20 nM.
Turning to `O=C(NS(=O)(=O)c1ccc(NCC2CCOCC2)c([N+](=O)[O-])c1)c1ccc(N2CCN(Cc3ccccc3-c3ccc(-c4nc(-c5ccccc5)cs4)s3)CC2)cc1` [Example 62, N-({3-nitro-4-[(tetrahydro-2H-pyran-4-ylmethyl)amino]phenyl}sulfonyl)-4-(4-{2-[5-(4-phenyl-1,3-thiazol-2-yl)-2-thienyl]benzyl}piperazin-1-yl)benzamide], the Ki amounted to 281 nM.
Take `O=C(NS(=O)(=O)c1ccc(NCC2CCOCC2)c([N+](=O)[O-])c1)c1ccc(N2CCN(Cc3ccccc3-c3ccc(-c4nc(C56CC7CC(CC(C7)C5)C6)cs4)s3)CC2)cc1` [Example 63, 4-[4-(2-{5-[4-(adamantan-1-yl)-1,3-thiazol-2-yl]-2-thienyl}benzyl)piperazin-1-yl]-N-({3-nitro-4-[(tetrahydro-2H-pyran-4-ylmethyl)amino]phenyl}sulfonyl)benzamide]: the Ki amounted to 278 nM.
Take `O=C(NS(=O)(=O)c1ccc(NCC2CCOCC2)c([N+](=O)[O-])c1)c1ccc(N2CCN(Cc3ccccc3-c3ccc(C(=O)Nc4ccc5oc(-c6ccccc6)nc5c4)o3)CC2)cc1` [Example 64, 5-{2-[(4-{4-[({3-nitro-4-[(tetrahydro-2H-pyran-4-ylmethyl)amino]phenyl}sulfonyl)carbamoyl]phenyl}piperazin-1-yl)methyl]phenyl}-N-(2-phenyl-1,3-benzoxazol-5-yl)-2-furamide]: the Ki stood at 1470 nM.
